Consider 1 cell line from the supplement of paper PMC10307832.

Common to all, as to assay: relative viability (nuclei count vs DMSO), 5 days (fraction); higher = more cells survive
Compound in the experiment “4EGI-1 + AZD7762”: O=C(O)C(Cc1ccccc1[N+](=O)[O-])=NNc1nc(-c2ccc(Cl)c(Cl)c2)cs1 (mixture of isomers) [4EGI-1] + NC(=O)Nc1cc(-c2cccc(F)c2)sc1C(=O)N[C@H]1CCCNC1 [AZD7762] (partner 0.2 µM)
In outline: (§1)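 Relative viability divides the nuclei count in treated wells by that in vehicle wells. Lung cancer cell lines were seeded in 1536-well plates, dosed by pin tool the next day, and fixed and stained after 5 days in one step with final 0.05% Triton X-100, 1% formaldehyde and 1 ug/ml Hoechst. Dosing was a single drug or a fixed anchor-drug dose plus five library-drug doses (not always all listed) in √10 steps, and values are medians of duplicate plates imaged at 4×.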

Compound in the experiment “XMD8-85 + Pemetrexed”: CN1CCN(CC1)C2=CC(=C(C=C2)NC3=NC=C4C(=N3)N(C5=CC=CC=C5C(=O)N4C)C)OC [XMD8-85] + Nc1nc2[nH]cc(CCc3ccc(C(=O)N[C@@H](CCC(=O)O)C(=O)O)cc3)c2c(=O)[nH]1 [Pemetrexed] (partner 0.2 µM)
In outline:
as §1

Compound in the experiment “XMD8-85 + Pictilisib”: CN1CCN(CC1)C2=CC(=C(C=C2)NC3=NC=C4C(=N3)N(C5=CC=CC=C5C(=O)N4C)C)OC [XMD8-85] + CS(=O)(=O)N1CCN(Cc2cc3nc(-c4cccc5[nH]ncc45)nc(N4CCOCC4)c3s2)CC1 [Pictilisib] (partner 1 µM)
In outline: as §1

Compound in the experiment “XMD8-85 + Alpelisib”: CN1CCN(CC1)C2=CC(=C(C=C2)NC3=NC=C4C(=N3)N(C5=CC=CC=C5C(=O)N4C)C)OC [XMD8-85] + Cc1nc(NC(=O)N2CCC[C@H]2C(N)=O)sc1-c1ccnc(C(C)(C)C(F)(F)F)c1 [Alpelisib] (partner 2 µM)
In outline:
as §1

Regarding NCI-H1792, the relative viability in the experiment with 4EGI-1 + AZD7762 (first compound 0.5 µM) worked out at 0.67; with 4EGI-1 + AZD7762 (first compound 1.581 µM), 0.822; with 4EGI-1 + AZD7762 (first compound 5 µM), 0.861; with 4EGI-1 + AZD7762 (first compound 15.81 µM), 0.657; in the experiment with 4EGI-1 + AZD7762 (first compound 50 µM) it was 0.0923; in the experiment with XMD8-85 + Pemetrexed (first compound 0.253 µM), 0.439. Besides, the relative viability is 0.889 with XMD8-85 + Pemetrexed (first compound 0.8 µM); 0.924 in the experiment with XMD8-85 + Pemetrexed (first compound 2.53 µM); 0.818 with XMD8-85 + Pemetrexed (first compound 8 µM); 0.251 with XMD8-85 + Pictilisib (first compound 0.08 µM); 0.226 with XMD8-85 + Pictilisib (first compound 0.253 µM); 0.276 in the experiment with XMD8-85 + Pictilisib (first compound 2.53 µM). Also, the relative viability with XMD8-85 + Pictilisib (first compound 8 µM) turned out to be 0.317; with XMD8-85 + Alpelisib (first compound 0.08 µM), 0.627; in the experiment with XMD8-85 + Alpelisib (first compound 0.253 µM), 0.642; in the experiment with XMD8-85 + Alpelisib (first compound 2.53 µM), 0.562; with XMD8-85 + Alpelisib (first compound 8 µM) it was 0.723.
